What all share (assay type): cell-based
Holding throughout (conditions): for Average value (measurement at 630 nm): number 3; for Measurement at 630 nm: single well

For assay [1], the system named is Saccharomyces cerevisae ATCC 9080. In words: Microbiological B6 pyridoxine determination (growth turbidity, pyridoxine-Y-medium). As to the method: The preparation of the microtitration plate and the determination of B6-pyridoxine was effected as in Example 1, except only that as test organism Saccharomyces cerevisae ATCC 9080 was employed. As assay medium there was employed Difco™ pyridoxine-Y-medium, containing dextrose 40.0 g/L, L-asparagine 4.0 g/L, ammonium sulfate 4.0 g/L potassium dihydrogen phosphate 3.0 g/L, magnesium sulfate 1.0 g/L, calcium chloride 0.49 g/L, DL-methionine 40.0 mg/L, DL-tryptophane 40.0 mg/L, DL-isoleucin 40.0 mg/L, DL-valin 40.0 mg/L, L-histidine hydrochloride 20.0 mg/L, riboflavin 20.0 mg/L, biotin 8.0 mg/L, inositol 5.0 mg/L, iron sulfate 500 μg/L, thiamine hydrochloride 400.0 μg/L, calcium pantothenate 400.0 μg/L, nicotinic acid 400.0 μg/L, boric acid 200.0 μg/L, potassium iodide 200.0 μg/L, ammonium molybdate 40.0 μg/L, manganese sulfate 80.0 μg/L, copper sulfate 90.0 μg/L, zinc sulfate 80.0 μg/L. The storage medium further contained 200 mM trehalose.

The test system of assay [2] is Lactobacillus plantarum ATCC 8014. In words: Microbiological biotin determination (growth turbidity, biotin assay medium). As for the experimental part:
The preparation of the microtitration plate and determination of biotin was effected as in Example 1 with Lactobacillus plantarum ATCC 8014. There served as assay medium Difco™ biotin assay medium, containing casamino acids 12.0 g/L, dextrose 40.0 g/L, sodium acetate 20.0 g/L, L-cystein 0.2 g/L, DL-tryptophane 0.2 g/L, adenine sulfate 20.0 mg/L, guanine hydrochloride 20.0 mg/L, uracil 20.0 mg/L, thiamine hydrochloride 2.0 mg/L, riboflavin 2.0 mg/L, niacin 2.0 mg/L, calcium pantothenate 2.0 mg/L, pyridoxine hydrochloride 4.0 mg/L, p-aminobenzoic acid 0.2 mg/L, magnesium sulfate (water-free) 0.4 mg/L, sodium chloride 20.0 mg/L, iron sulfate 20.0 mg/L, manganese sulfate 20.0 mg/L, potassium dihydrogen phosphate 1.0 g/L, dipotassium hydrogen phosphate 1.0 g/L. The storage medium further contain 200 mM trehalose. The determined standard curve is show in FIG. 4.

Assay [3] concerns Lactobacillus rhamnosus ATCC 7469. The experiment in a line: Microbiological folic acid determination (growth turbidity, folic acid-casein medium). The source says: The preparation of the microtitration plate and the determination of folic acid (pteroylglutaminic acid and other folic acid conjugates) was effected as in Example 1, except only that Lactobacillus rhamnosus ATCC 7469 was employed as test organism. There was employed as assay medium Difco™ folic acid-casein medium, containing activated carbon treated pancreas digested casein 10.0 g/L, dextrose 40.0 g/L, sodium acetate 40.0 g/L, potassium dihydrogen phosphate 1.0 g/L, dipotassium hydrogen phosphate 1.0 g/L, DL-tryptophane 0.2 g/L, L-asparagine 0.6 g/L, L-cystein hydrochloride 0.5 g/L, adenine sulfate 10.0 mg/L, guanine hydrochloride 10.0 mg/L, uracil 10.0 mg/L, xanthin 20.0 mg/L, Polysorbate-80 0.1 g/L, glutathion (reduced) 5.0 mg/L, magnesium sulfate 0.2 g/L, sodium chloride 20.0 mg/L, iron sulfate 20.0 mg/L, manganese sulfate 15.0 mg/L, riboflavin 1.0 mg/L, p-aminobenzoic acid 2.0 mg/L, pyridoxine hydrochloride 4.0 mg/L, thiamine hydrochloride 400.0 μg/L, calcium pantothenate 800.0 μg/L, nicotinic acid 800.0 μg/L, biotin 20.0 μg/L, 0.05% ascorbic acid. The storage medium contained 200 mM trehalose. The folic acid standard was dissolved in 100 mMol potassium phosphate buffer, pH 6.1, 0.1% ascorbic acid.

The subject of assay [4] is Lactobacillus planatarum ATTC 8014. In words: Microbiological calcium pantothenate determination (growth turbidity). As for the experimental part: [table] The preparation of the microtitration plate and the determination of […] 800 μg/L, p-aminobenzoic acid 200.0 μg/L, biotin 1.0 μg/L, potassium dihydrogen phosphate 1.0 g/L, dipotassium hydrogen phosphate 1.0 g/L, magnesium sulfate 0.4 g/L, sodium chloride 20.0 mg/L, iron sulfate 20.0 mg/L, manganese sulfate 20.0 mg/L. The storage medium further contained 200 mM trehalose.

Assay [5] deals with Lactobacillus delbrueckii subsp. Lactis (L. leichmanii) ATCC 7830. The experiment in a line: Microbiological vitamin B12 determination (growth turbidity, B12 assay medium). An excerpt: The preparation of the microtitration plate and the determination of vitamin B12 (cyanocobalamine, hydroxycobalamine) was effected as in Example 1, except only that Lactobacillus delbrueckii subsp. Lactis (L. leichmanii) ATCC 7830 was employed as test organism. As assay medium there served Difco™ B12 assay medium, containing casamino acids 15.0 g/L, dextrose 40.0 g/L, asparagine 0.2 g/L, sodium acetate 20.0 g/L, Ascorbic acid 4.0 g/L, L-cystein 4.0 g/L, DL-tryptophane 0.4 g/L, adenine sulfate 20.0 mg/L, guanine hydrochloride 20.0 mg/L, uracil 20.0 mg/L, xanthin 20.0 mg/L, polysorbate-80 2.0 g/L, magnesium sulfate (water-free) 0.4 mg/L, sodium chloride 20.0 mg/L, iron sulfate 20.0 mg/L, manganese sulfate 20.0 mg/L, riboflavin 1.0 mg/L, p-aminobenzoic acid 2.0 mg/L, pyridoxine hydrochloride 4.0 mg/L, thiamine hydrochloride 1.0 mg/L, calcium pantothenate 1.0 mg/L, niacin 2.0 mg/L, biotin 10.0 ug/L, pyridoxine hydrochloride 4.0 mg/L, pyridoxal hydrochloride 4.0 mg/L, pyridoxamine hydrochloride 800.0 ug/L, […], potassium dihydrogen phosphate 1.0 g/L, dipotassium hydrogen phosphate 1.0 g/L. The storage medium further contained 200 mM trehalose.

Setting [6] is: B6-pyridoxine standard 0.004 mg/100 g.
Setting [7] is: B6-pyridoxine standard 0.008 mg/100 g.
The mark [8] stands for this setting: B6-pyridoxine standard 0.012 mg/100 g.
[9] abbreviates: B6-pyridoxine standard 0.016 mg/100 g.
Setting [10] is: B6-pyridoxine standard 0.024 mg/100 g.
Setting [11] is: folic acid standard 3.75 pg/150 μl (0.25 μg/100 g).
Setting [12] is: folic acid standard 7.5 pg/150 μl (0.5 μg/100 g).
Setting [13] is: folic acid standard 15 pg/150 μl (1 μg/100 g).
The mark [14] stands for this setting: folic acid standard 22.5 pg/150 μl (1.5 μg/100 g).
The mark [15] stands for this setting: folic acid standard 30 pg/150 μl (2 μg/100 g).
[16] abbreviates: Ca pantothenate standard 0.08 mg/100 g.
Setting [17] is: Ca pantothenate standard 0.16 mg/100 g.
Setting [18] is: Ca pantothenate standard 0.32 mg/100 g.
[19] abbreviates: Ca pantothenate standard 0.48 mg/100 g.
The mark [20] stands for this setting: Ca pantothenate standard 0.64 mg/100 g.
[21] abbreviates: vitamin B12 standard 0.1 μg/100 g.
[22] abbreviates: vitamin B12 standard 0.2 μg/100 g.
The mark [23] stands for this setting: vitamin B12 standard 0.3 μg/100 g.
[24] abbreviates: vitamin B12 standard 0.4 μg/100 g.
The mark [25] stands for this setting: vitamin B12 standard 0.8 μg/100 g.

“And” between values parts separate entries of the source, which are not always exact repeats. Equal entries are not always repeated.

This note sets out measurements from patent US8357504B2, “Method and kit for the microbiological determination of vitamins in substance mixtures” (IFP Privates Institut fur Produktqualitat GmbH, priority 2004, dated 2013).

As for `Cc1ncc(CO)c(CO)c1O` [B6-pyridoxine, pyridoxine], the “Average value (measurement at 630 nm)” value in assay [1] (setting [6]) came to 0.299; in assay [1] (setting [7]), 0.4; in assay [1] (setting [8]), 0.538; in assay [1] (setting [9]) it was 0.753; in assay [1] (setting [10]) it was 1.069. For the same compound, the “Measurement at 630 nm” value in assay [1] (setting [6]) was 0.298 and 0.297 and 0.301; in assay [1] (setting [7]) it was 0.407 and 0.398 and 0.394; in assay [1] (setting [8]), 0.522 and 0.541 and 0.552; in assay [1] (setting [9]), 0.73 and 0.766 and 0.762; in assay [1] (setting [10]), 1.049 and 1.088 and 1.07.
Take `O=C(O)CCCC[C@@H]1SC[C@@H]2NC(=O)N[C@@H]21` [Biotin, biotin]: the “Average value (measurement at 630 nm)” value in assay [2] (biotin standard 0.003 μg/100 g) amounted to 0.204; in assay [2] (biotin standard 0.009 μg/100 g), 0.499; in assay [2] (biotin standard 0.015 μg/100 g), 0.685; in assay [2] (biotin standard 0.021 μg/100 g), 0.823; in assay [2] (biotin standard 0.027 μg/100 g), 0.985. For the same compound, the “Measurement at 630 nm” value was 0.205 and 0.204 and 0.203 in assay [2] (biotin standard 0.003 μg/100 g); 0.506 and 0.5 and 0.491 in assay [2] (biotin standard 0.009 μg/100 g); 0.676 and 0.693 and 0.686 in assay [2] (biotin standard 0.015 μg/100 g); 0.826 and 0.822 and 0.82 in assay [2] (biotin standard 0.021 μg/100 g); 0.986 and 0.988 and 0.982 in assay [2] (biotin standard 0.027 μg/100 g).
For `Nc1nc2ncc(CNc3ccc(C(=O)N[C@@H](CCC(=O)O)C(=O)O)cc3)nc2c(=O)[nH]1` [Folic acid, folic acid], the “Average value (measurement at 630 nm)” value in assay [3] (setting [11]) stood at 0.264; in assay [3] (setting [12]) it was 0.545; in assay [3] (setting [13]) it was 0.793; in assay [3] (setting [14]), 0.999; in assay [3] (setting [15]), 1.094. The “Measurement at 630 nm” value in assay [3] (setting [11]) is 0.269 and 0.261; in assay [3] (setting [12]), 0.556 and 0.536 and 0.544; in assay [3] (setting [13]), 0.784 and 0.788 and 0.807; in assay [3] (setting [14]), 0.986 and 1.002 and 1.01; in assay [3] (setting [15]), 1.121 and 1.074 and 1.087.
Take calcium pantothenate [Ca pantothenate]: the “Average value (measurement at 630 nm)” value is reported as 0.076 in assay [4] (setting [16]); 0.179 in assay [4] (setting [17]); 0.395 in assay [4] (setting [18]); 0.491 in assay [4] (setting [19]); 0.59 in assay [4] (setting [20]). The “Measurement at 630 nm” value in assay [4] (setting [16]) was 0.075 and 0.08 and 0.073; in assay [4] (setting [17]), 0.179 and 0.178 and 0.181; in assay [4] (setting [18]), 0.389 and 0.404 and 0.392; in assay [4] (setting [19]), 0.49 and 0.493 and 0.491; in assay [4] (setting [20]) it was 0.589 and 0.594 and 0.588.
On to cyanocobalamine [Vitamin B12], for which the “Average value (measurement at 630 nm)” value in assay [5] (setting [21]) is 0.268; in assay [5] (setting [22]), 0.515; in assay [5] (setting [23]), 0.728; in assay [5] (setting [24]) it was 0.869; in assay [5] (setting [25]), 1.069. Further, the “Measurement at 630 nm” value in assay [5] (setting [21]) is 0.264 and 0.271 and 0.269; in assay [5] (setting [22]), 0.51 and 0.503 and 0.531; in assay [5] (setting [23]), 0.727 and 0.721 and 0.736; in assay [5] (setting [24]), 0.88 and 0.863 and 0.865; in assay [5] (setting [25]), 1.086 and 1.073 and 1.048.
